Experimental data from US9096591B2, “Tetracyclic compounds” (Medivation Technologies, Inc., priority 2007, dated 2015).
Read-outs that look alike come from different tables or passages of the source.

Tests used:
[1] = target: T1, human recombinant serotonin (5-Hydroxytryptamine) 5-HT2C receptor (Homo sapiens, UniProt P28335); assay: Serotonin 5-HT2C radioligand binding ([3H]Mesulergine); parameters: Inhibition of ligand binding, Ser. 5-HT2C: concentration or dose not given beside the values; details: for Inhibition of ligand binding, Ser. 5-HT2C: percent inhibition of specific binding; for inhibition at 1 µM: compounds screened at 1 μM, read-out: Inhibition of ligand binding, Ser. 5-HT2C (percent inhibition of specific binding)
T1 construct: expressed in transfected cells; host or cells: CHO-K1 cells
T1 sequence (P28335 33-458): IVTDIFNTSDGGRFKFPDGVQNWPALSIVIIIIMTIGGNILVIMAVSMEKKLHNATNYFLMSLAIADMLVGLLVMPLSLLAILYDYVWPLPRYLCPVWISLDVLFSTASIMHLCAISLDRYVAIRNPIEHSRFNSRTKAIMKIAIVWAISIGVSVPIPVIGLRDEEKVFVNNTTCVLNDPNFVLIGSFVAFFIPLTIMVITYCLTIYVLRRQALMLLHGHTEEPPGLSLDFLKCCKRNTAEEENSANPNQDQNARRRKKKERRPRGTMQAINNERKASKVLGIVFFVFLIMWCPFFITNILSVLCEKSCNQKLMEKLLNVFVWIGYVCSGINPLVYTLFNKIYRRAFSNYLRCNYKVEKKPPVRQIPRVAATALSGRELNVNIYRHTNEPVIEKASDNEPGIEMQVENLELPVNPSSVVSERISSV
Method: (§1) Compounds of the invention were incubated with 1 nM [^3H]Mesulergine for 60 minutes at 25° C. Non-specific binding was estimated in the presence of 1 μM Mianserin. Receptor proteins were filtered and washed, the filters were then counted to determine [^3H]Mesulergine specifically bound. […] Biochemical assay results are presented as the percent inhibition of specific binding in Table 6.

[2] = target: T2, human recombinant adrenergic α1D receptor (Homo sapiens, UniProt P25100); assay: Adrenergic α1D radioligand binding ([3H]Prozosin); parameters: Inhibition of ligand binding, Adren. alpha1D: concentration or dose not given beside the values; details: for Inhibition of ligand binding, Adren. alpha1D: percent inhibition of specific binding; for inhibition at 1 µM: compounds screened at 1 μM, read-out: Inhibition of ligand binding, Adren. alpha1D (percent inhibition of specific binding)
T2 construct: expressed in transfected cells; host or cells: HEK-293 cells
T2 sequence (P25100 1-572): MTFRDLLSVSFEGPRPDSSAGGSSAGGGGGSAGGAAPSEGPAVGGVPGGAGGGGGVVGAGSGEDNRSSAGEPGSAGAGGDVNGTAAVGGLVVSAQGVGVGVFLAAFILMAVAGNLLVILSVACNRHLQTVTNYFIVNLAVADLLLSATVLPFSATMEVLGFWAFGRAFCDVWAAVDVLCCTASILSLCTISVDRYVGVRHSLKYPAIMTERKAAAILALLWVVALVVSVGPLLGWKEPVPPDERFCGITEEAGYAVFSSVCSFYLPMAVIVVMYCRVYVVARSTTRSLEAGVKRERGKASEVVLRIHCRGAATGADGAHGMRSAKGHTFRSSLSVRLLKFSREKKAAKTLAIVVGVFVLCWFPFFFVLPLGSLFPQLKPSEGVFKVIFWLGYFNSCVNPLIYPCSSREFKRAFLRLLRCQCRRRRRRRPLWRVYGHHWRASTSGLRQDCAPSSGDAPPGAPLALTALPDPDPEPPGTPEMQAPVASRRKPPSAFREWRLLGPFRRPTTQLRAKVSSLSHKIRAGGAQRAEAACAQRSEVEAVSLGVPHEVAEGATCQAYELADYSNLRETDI
Method: as §1, with “of” for “of the”, “with 0.6” for “with 1”, “nM [^3H]Prozosin” for “nM [^3H]Mesulergine”, “of 10” for “of 1”, “μM phentolamine.” for “μM Mianserin.”, “determine [^3H]Prozosin” for “determine [^3H]Mesulergine”

[3] = target: T3, human recombinant histamine H2 receptor (Homo sapiens, UniProt P25021); assay: Histamine H2 radioligand binding ([125I]Aminopotentidine)
T3 construct: expressed in transfected cells; host or cells: CHO-K1 cells
T3 sequence (P25021 whole entry): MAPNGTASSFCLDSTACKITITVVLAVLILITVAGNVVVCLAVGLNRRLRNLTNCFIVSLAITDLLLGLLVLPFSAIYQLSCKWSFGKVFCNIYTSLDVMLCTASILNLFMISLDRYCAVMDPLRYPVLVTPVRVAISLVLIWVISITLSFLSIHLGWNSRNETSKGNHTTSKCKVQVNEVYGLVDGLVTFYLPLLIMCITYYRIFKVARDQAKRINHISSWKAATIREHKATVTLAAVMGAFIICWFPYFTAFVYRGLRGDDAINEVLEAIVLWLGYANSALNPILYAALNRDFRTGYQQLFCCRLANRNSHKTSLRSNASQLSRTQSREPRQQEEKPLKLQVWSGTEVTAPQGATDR
In short: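 This radioligand binding assay measured displacement of [125I]Aminopotentidine from recombinant human histamine H2 receptors. Compounds were dissolved in 1% DMSO vehicle. Specific binding was calculated by subtracting non-specific binding, defined using 3 μM Tiotidine, and activity was reported as percentage inhibition of that specific binding.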

[4] = target: T4, Serotonin (5-Hydroxytryptamine) 5-HT7 (Homo sapiens, UniProt P34969); assay: Serotonin 5-HT7 radioligand binding ([3H]LSD); parameters: Inhibition of ligand binding, Ser. 5-HT7: concentration or dose not given beside the values; details: for Inhibition of ligand binding, Ser. 5-HT7: percent inhibition of specific binding; for inhibition at 1 µM: compounds screened at 1 μM, read-out: Inhibition of ligand binding, Ser. 5-HT7 (percent inhibition of specific binding)
T4 construct: expressed in transfected cells; host or cells: CHO cells
T4 sequence (P34969 whole entry): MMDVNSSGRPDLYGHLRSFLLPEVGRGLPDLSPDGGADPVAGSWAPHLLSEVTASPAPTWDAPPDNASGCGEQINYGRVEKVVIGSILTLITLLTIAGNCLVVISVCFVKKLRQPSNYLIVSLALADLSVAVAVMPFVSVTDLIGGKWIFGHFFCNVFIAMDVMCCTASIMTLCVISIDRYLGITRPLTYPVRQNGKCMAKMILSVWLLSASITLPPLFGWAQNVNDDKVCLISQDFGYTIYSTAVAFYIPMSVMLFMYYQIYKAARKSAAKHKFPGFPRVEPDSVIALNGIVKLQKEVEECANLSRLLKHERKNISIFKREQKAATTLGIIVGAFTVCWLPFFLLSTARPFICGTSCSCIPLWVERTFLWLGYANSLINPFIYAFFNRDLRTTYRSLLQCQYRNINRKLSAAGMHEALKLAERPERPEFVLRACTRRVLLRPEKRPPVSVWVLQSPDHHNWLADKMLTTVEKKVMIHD
Method: Lysergic acid diethylamide (LSD) for 2 hours at 25° C. […] Receptor proteins were filtered and washed, the filters were then counted to determine [^3H]LSD specifically bound. […] Biochemical assay results are presented as the percent inhibition of specific binding in Table 6.

[5] = target: T5, human recombinant serotonin (5-Hydroxytryptamine) 5-HT2A receptor (Homo sapiens, UniProt P28223); assay: Serotonin 5-HT2A radioligand binding ([3H]Ketanserin); details: for Inhibition of ligand binding, Ser. 5-HT2A: percent inhibition of specific binding; for inhibition at 1 µM: read-out: Inhibition of ligand binding, Ser. 5-HT2A (percent inhibition of specific binding)
T5 construct: expressed in transfected cells; host or cells: CHO-K1 cells
T5 sequence (P28223 whole entry): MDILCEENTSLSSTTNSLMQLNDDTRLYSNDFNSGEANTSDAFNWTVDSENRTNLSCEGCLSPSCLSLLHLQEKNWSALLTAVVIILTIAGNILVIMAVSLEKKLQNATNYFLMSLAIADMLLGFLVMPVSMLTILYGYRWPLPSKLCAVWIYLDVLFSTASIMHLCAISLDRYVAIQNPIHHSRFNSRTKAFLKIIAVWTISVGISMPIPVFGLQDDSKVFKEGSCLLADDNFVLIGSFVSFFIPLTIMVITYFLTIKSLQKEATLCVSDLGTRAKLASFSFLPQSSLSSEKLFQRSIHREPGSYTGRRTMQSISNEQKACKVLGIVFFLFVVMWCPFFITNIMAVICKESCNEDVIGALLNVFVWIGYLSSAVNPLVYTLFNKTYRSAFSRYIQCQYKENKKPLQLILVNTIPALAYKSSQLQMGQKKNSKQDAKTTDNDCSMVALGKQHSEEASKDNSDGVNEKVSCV
Method: as §1, with “with 0.5” for “with 1”, “nM [^3H]Ketanserin” for “nM [^3H]Mesulergine”, “determine [^3H]Ketanserin” for “determine [^3H]Mesulergine”

[6] = 1 μM compound, 0.1 nM [125I]Aminopotentidine, read-out: Histamine Binding H2, percent inhibition of specific binding
[7] = percent inhibition of specific binding, screened at 1 μM, read-out: Inhibition of ligand binding, Hist. H2
[8] = compounds screened at 1 μM, read-out: Inhibition of ligand binding, Hist. H2 (percent inhibition of specific binding)

Row | Structure (SMILES) | Inhibition of ligand binding, Ser. 5-HT2C [1] [%] | Inhibition of ligand binding, Adren. alpha1D [2] [%] | inhibition at 1 µM [3, 7] [%] | Inhibition of ligand binding, Ser. 5-HT7 [4] [%] | Inhibition of ligand binding, Ser. 5-HT2A [5] [%] | inhibition at 1 µM [1] [%] | inhibition at 1 µM [2] [%] | inhibition at 1 µM [3, 8] [%] | inhibition at 1 µM [4] [%] | inhibition at 1 µM [5] [%] | further results
1 | Cc1ccc2c(c1)c1c(n2CCc2ccc(C)nc2)C(Br)C(=O)N(C)C1 (stereo not drawn) [Compound 232, 4-bromo-1,2-dihydro-2,8-dimethyl-5-(2-(6-methylpyridin-3-yl)ethyl)-4H-pyrido[4,3-b]indol-3(5H)-one] | 2 | 5 | 3 | 6 | −10 |  |  |  |  |  | inhibition at 1 µM [3, 6]: 3%
2 | Cc1ccc2c(c1)c1c(n2CCCc2ccccn2)CCN(C)C1 [Compound 233, 2,3,4,5-tetrahydro-2,8-dimethyl-5-(3-(pyridin-2-yl)propyl)-1H-pyrido[4,3-b]indole] | 93 | 49 | 45 | 101 | 92 |  |  |  |  |  | inhibition at 1 µM [3, 6]: 45%
3 | Cc1ccc2c(c1)c1c(n2CCc2ccc(C(=O)O)nc2)CCN(C)C1 [Compound 255] | 11 | 2 | -15 | 11 | 1 |  |  |  |  |  | inhibition at 1 µM [3, 6]: -15%
4 | Cc1ccc(CCn2c3c(c4cc(C(=O)O)ccc42)CNCC3)cn1 [Compound 274, 2,3,4,5-tetrahydro-5-(2-(6-methylpyridin-3-yl)ethyl)-1H-pyrido[4,3-b]indole-8-carboxylic acid] | −5 | −16 | -2 | −3 | 6 |  |  |  |  |  | 
5 | CN1CCc2c(c3ccccc3n2CCc2ccccn2)C1 [Compound 329, 2,3,4,5-tetrahydro-2-methyl-5-(2-(pyridin-2-yl)ethyl)-1H-pyrido[4,3-b]indole] | 54 | 4 | 16 | 78 | 70 |  |  |  |  |  | 
6 | Cc1ccc2c(c1)c1c(n2CCc2nc(-c3ccccc3)cs2)CCN(C)C1 [Compound C1-5] |  |  |  |  |  | 93 | 92 | 73 | 93 | 97 | 
7 | COc1ccc2c(c1)c1c(n2CCc2nc(-c3ccccc3)cs2)CCN(C)C1 [Compound C1-6] |  |  |  |  |  | 90 | 72 | 21 | 57 | 84 | 
8 | CN1CCc2c(c3cc(F)ccc3n2CCc2nc(-c3ccccc3)cs2)C1 [Compound C1-7] |  |  |  |  |  | 91 | 66 | 55 | 90 | 96 | 
9 | CN1CCc2c(c3ccccc3n2CCc2noc(-c3ccccc3)n2)C1 [Compound C4-1] |  |  |  |  |  | 91 | 60 | 47 | 88 | 96 | 
10 | Cc1ccc2c(c1)c1c(n2CCc2noc(-c3ccccc3)n2)CCN(C)C1 [Compound C4-4] |  |  |  |  |  | 98 | 92 | 68 | 96 | 100 | 
11 | CN1CCc2c(c3cc(Cl)ccc3n2CCc2noc(-c3ccccc3)n2)C1 [Compound C4-6] |  |  |  |  |  | 94 | 84 | 68 | 90 | 99 | 
12 | Cc1ccc2c(c1)c1c(n2CCc2ccc(C)nc2)CC[N+](C)([O-])C1 (stereo not drawn) [Example 93, 2,8-dimethyl-5-(2-(6-methylpyridin-3-yl)ethyl)-2,3,4,5-tetrahydro-1H-pyrido[4,3-b]indole 2-oxide] |  |  |  |  |  |  |  |  |  |  | Ser. 5-HT2C ([1]; inhibition profile): 9; Adren. alpha1D ([2]; inhibition profile): 19; Hist. H2 ([3]; inhibition profile): 19; Ser. 5-HT7 ([4]; inhibition profile): 35; Ser. 5-HT2A ([5]; inhibition profile): 4
